Results reported in US12622890B2, “Use of the active compound in the prevention or treatment of ovarian dysfunction diseases” (INSTITUTE OF BIOPHYSICS, CHINESE ACADEMY OF SCIENCES, priority 2022, dated 2026).

Tests used:
Assay type in all cases: in vivo
[1] = Body weight of POI model mice before modeling, after modeling and after treatment; conditions: for Body weight before modeling: D 0, 100 mg/kg/d oral; for Body weight after modeling: D 7, 100 mg/kg/d oral; for Body weight after treatment: D 13, 100 mg/kg/d oral
Protocol: Animal model establishment: A total of 34 C57 female mice (8-week-old) were selected and intraperitoneally injected with the ratio of 120 mg/kg cyclophosphamide (SIGMA) and 30 mg/kg Busulfan (Aladdin) once a day for 1 week at the dose of 0.1 mL/10 g to establish the model of POI.
Grouping: 34 POI model mice were randomly divided into four groups: sodium fumarate (SF) treatment group (n=9), hyodeoxycholic acid (HDCA) treatment group (n=8), sodium fumarate plus hyodeoxycholic acid (mass ratio 1:1) combination (SF+HDCA) treatment group (n=8) and normal saline (Vehicle) group (n=9). Mice in the SF group were given oral administration of SF at the ratio of 100 mg/kg/d body weight, mice in the HDCA group were given oral administration of HDCA at the ratio of 100 mg/kg/d body weight, and mice in the combination group were given oral administration of SF and HDCA at the ratio of 100 mg/kg/d body weight. SF and HDCA were dissolved with 0.9% normal saline when used. Mice in the vehicle group were given the same amount of normal saline orally. All the mice were treated consecutively for 12 days.
Body weight were recorded at three time points, before modeling (at the beginning of treatment), after modeling and after treatment.
Animal model establishment: A total of 24 C57 mice (8-week-old) were selected and intraperitoneally injected with the ratio of 120 mg/kg cyclophosphamide and 30 mg/kg Busulfan once a day for 1 week at the dose of 0.1 mL/10 g to establish the model of POI.
Grouping: 24 POI model mice were randomly divided into four groups: dimethyl fumarate (DMF) treatment group (n=5), hyodeoxycholic acid (HDCA) treatment group (n=6), dimethyl fumarate plus hyodeoxycholic acid (mass ratio=1:1) combination (DMF+HDCA) treatment group (n=7) and normal saline (Vehicle) group (n=6). Mice in the DMF treatment group were orally administrated at the ratio of 100 mg/kg/d body weight. Mice in the HDCA treatment group were given oral administration of HDCA at the ratio of 100 mg/kg/d body weight, and mice in the combination group were given oral administration of DMF and HDCA at the ratio of 100 mg/kg/d body weight. Once daily, DMF and HDCA were dissolved in 0.9% normal saline when used. Mice in normal saline group were given the same amount of normal saline orally every day. The drug was administered for 12 days.
Body weight were recorded at three time points, before modeling (at the beginning of treatment, the 0th day), after modeling (the 7th day) and after treatment (the 13th day).
The body weight of POI model mice of each group was measured before modeling, after modeling and after treatment.

POI mice = assay: Serum FSH level in POI mice; conditions: for FSH: serum, after 12 days 100 mg/kg/d oral
Excerpt: Biomarkers mentioned herein, such as follicle stimulating hormone (FSH), estrogen (e.g., E2), and superoxide dismutase (SOD), malondialdehyde (MDA), relative reactive oxygen species (ROS), and lactate dehydrogenase (LDH), etc., can be detected using methods commonly known in the field. Detection methods typically cover methods that quantify the level of a biomarker in a sample (quantitative methods). Which of the following methods are suitable for qualitative and/or quantitative detection of biomarkers is generally known to those skilled in the field. Samples can be conveniently measured, for example for proteins using immunoassays such as ELISA, RIA, etc., which are commercially available.
(§1) After 12 days of administration, half of the mice in each group were sacrificed, and their blood was collected and kept still. The serum was separated after centrifugation at 4500 rpm and stored in a refrigerator at −80° C. for future use to measure levels of follicle stimulating hormone, estrogen, and the indexes of oxidative stress such as superoxide dismutase (SOD) and malondial dehyde (MDA).
as §1, with “kept in” for “kept”, “levals” for “levels”, “malondialdehyde” for “malondial dehyde”
• 1. Hormone levels in mice blood of Example 1 are measured in this embodiment.

POI model mice = assay: Estrous cycle observation by vaginal smear cytology in POI model mice
[2] = Example 2, during drug administration, FIG. 5B

SMILES: C[C@H](CCC(=O)O)[C@H]1CC[C@H]2[C@@H]3C[C@H](O)[C@@H]4C[C@H](O)CC[C@]4(C)[C@H]3CC[C@]12C [HDCA, hyodeoxycholic acid, reference compound]
- Body weight before modeling ([1]; Example 1 POI mice): 18.79 ± 0.80 g
- Body weight after modeling ([1]; Example 1 POI mice): 17.69 ± 1.03 g
- Body weight after treatment ([1]; Example 1 POI mice): 17.96 ± 1.20 g
- Weight recovery after chemotherapy ([1]; Example 1 POI mice, FIG. 2A): significantly beneficial
- Body weight before modeling ([1]; Example 2 POI mice): 18.32 ± 1.61 g
- Body weight after modeling ([1]; Example 2 POI mice): 16.31 ± 2.02 g
- Body weight after treatment ([1]; Example 2 POI mice): 17.10 ± 2.24 g
- Weight recovery after chemotherapy ([1]; Example 2 POI mice, FIG. 2B): significantly beneficial
- Serum FSH level compared with the normal saline group (POI mice; Example 1, FIG. 6): decreasing trend
- Serum FSH level compared with the normal saline group (POI mice; Example 2, FIG. 8, not statistically significant): certain decreasing trend
- FSH (POI mice; Example 1 POI mice): 4.85 ± 2.34 mIU/mL
- FSH (POI mice; Example 2 POI mice): 1.65 ± 0.76 mIU/mL
- Effect on mice with premature ovarian failure (conclusion from estrous cycle) (POI model mice; Example 2): preventive and therapeutic effects
- Average rate of diestrum (D) in estrous cycle (POI model mice; [2]): 52.08%
- Average rate of estrous (E) stage in estrous cycle (POI model mice; [2]): 6.25%
- Average rate of metestrum (M) in estrous cycle (POI model mice; [2]): 12.50%
- Average rate of proestrous (P) in estrous cycle (POI model mice; [2]): 29.17%
- Number of mice with estrous cycle recovered (POI model mice; Example 2, 12 days observation, DMF n=5, HDCA n=6, DMF and HDCA n=7): 3 mice
